Drawing on ChEMBL document CHEMBL5723379, “Affinity On-target Cellular Literature for EUbOPEN Chemogenomic Library” (2024), this text covers EC50 and IC50 for eleven compounds.

Test [1] deals with T1, Nuclear receptor ROR-gamma (Homo sapiens, UniProt P51449).
T1 sequence (P51449 whole entry): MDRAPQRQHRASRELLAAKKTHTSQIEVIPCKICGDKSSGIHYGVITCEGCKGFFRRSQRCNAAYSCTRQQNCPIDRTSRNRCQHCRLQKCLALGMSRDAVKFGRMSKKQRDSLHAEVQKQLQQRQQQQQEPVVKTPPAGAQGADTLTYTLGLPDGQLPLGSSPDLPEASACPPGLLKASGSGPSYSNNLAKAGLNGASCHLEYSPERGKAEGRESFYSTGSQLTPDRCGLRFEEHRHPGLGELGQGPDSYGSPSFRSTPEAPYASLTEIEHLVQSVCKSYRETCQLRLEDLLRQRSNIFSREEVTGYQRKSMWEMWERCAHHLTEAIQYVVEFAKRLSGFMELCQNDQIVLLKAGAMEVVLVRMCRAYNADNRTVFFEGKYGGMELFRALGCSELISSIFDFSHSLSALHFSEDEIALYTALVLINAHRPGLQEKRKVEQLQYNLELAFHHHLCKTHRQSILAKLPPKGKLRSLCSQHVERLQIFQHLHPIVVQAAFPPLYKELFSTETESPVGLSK

Test [2] deals with T2, Oxysterols receptor LXR-beta (Homo sapiens, UniProt P55055).
T2 sequence (P55055 whole entry): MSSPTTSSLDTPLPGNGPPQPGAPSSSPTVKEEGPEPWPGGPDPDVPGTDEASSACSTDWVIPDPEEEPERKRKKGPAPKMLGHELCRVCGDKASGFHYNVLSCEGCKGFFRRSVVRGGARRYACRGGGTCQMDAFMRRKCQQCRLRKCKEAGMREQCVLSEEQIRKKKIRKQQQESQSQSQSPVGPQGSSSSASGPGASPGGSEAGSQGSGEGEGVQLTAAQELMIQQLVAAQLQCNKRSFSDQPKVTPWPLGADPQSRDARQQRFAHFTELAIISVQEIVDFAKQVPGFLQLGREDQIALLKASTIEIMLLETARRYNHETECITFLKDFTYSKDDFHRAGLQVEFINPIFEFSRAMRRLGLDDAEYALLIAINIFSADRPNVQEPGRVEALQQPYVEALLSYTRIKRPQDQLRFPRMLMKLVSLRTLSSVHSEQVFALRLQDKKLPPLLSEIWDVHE
The test can be described thus: Affinity On-target Cellular interaction: (Reporter gene assay (HEK293T cells)) EUB0001482aCl NR1H2. The format is functional, cell-based, HEK-293T. Set-up: mode of action Agonist, recommended concentration 10 uM. (In general: In a reporter assay the amount or activity of a reporter protein is the signal.)

In test [3] the target is T3, Oxysterols receptor LXR-alpha (Homo sapiens, UniProt Q13133).
T3 sequence (Q13133 whole entry): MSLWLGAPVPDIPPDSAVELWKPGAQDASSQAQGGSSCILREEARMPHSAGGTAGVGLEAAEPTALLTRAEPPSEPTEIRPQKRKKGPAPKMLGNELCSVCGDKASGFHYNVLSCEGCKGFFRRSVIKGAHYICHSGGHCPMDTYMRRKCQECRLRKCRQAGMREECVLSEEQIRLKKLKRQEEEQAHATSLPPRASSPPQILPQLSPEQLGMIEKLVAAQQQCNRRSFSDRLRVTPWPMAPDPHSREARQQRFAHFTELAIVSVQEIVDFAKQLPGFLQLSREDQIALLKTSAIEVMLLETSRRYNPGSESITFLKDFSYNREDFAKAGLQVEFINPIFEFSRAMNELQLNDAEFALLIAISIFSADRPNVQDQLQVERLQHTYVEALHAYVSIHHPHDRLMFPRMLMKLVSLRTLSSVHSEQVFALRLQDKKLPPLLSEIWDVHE
The test can be described thus: Affinity On-target Cellular interaction: (Reporter gene assay (HEK293T cells)) EUB0001482aCl NR1H3. Also noted: mode of action Agonist, recommended concentration 10 uM. It is filed as functional, cell-based, HEK-293T.

Test [4] has as its target Nuclear receptor subfamily 1 group D member 1 (Homo sapiens, UniProt P20393). The experiment in a line: Affinity On-target Cellular interaction: (Reporter gene assay (HEK293T cells)) EUB0001155a NR1D1. Also noted: mode of action Agonist, recommended concentration 10 uM. The format is functional, cell-based, HEK-293T.
Test [5] concerns the target Nuclear receptor subfamily 1 group D member 2 (Homo sapiens, UniProt Q14995). The experiment in a line: Affinity On-target Cellular interaction: (Reporter gene assay (HEK293T cells)) EUB0001155a NR1D2. It is filed as functional, cell-based, HEK-293T. Also noted: mode of action Agonist, recommended concentration 10 uM.
Test [6] deals with T2, Oxysterols receptor LXR-beta. The test can be described thus: Affinity On-target Cellular interaction: (Reporter gene assay (HEK293T cells)) EUB0001167a NR1H2. The format is functional, cell-based, HEK-293T. Set-up: mode of action Agonist, recommended concentration 1 uM.
Test [7] concerns the target Nuclear receptor subfamily 1 group I member 2 (Homo sapiens, UniProt O75469). The test can be described thus: Affinity On-target Cellular interaction: (Reporter gene assay (HEK293T cells)) EUB0002358a NR1I2. The format is functional, cell-based, HEK-293T. Also noted: mode of action Agonist, recommended concentration 10 uM.
For test [8], the target named is Triacylglycerol hydrolase DDHD2 (Homo sapiens, UniProt O94830). The test can be described thus: Affinity On-target Cellular interaction: (Inhibition of DDHD2 in HEK293T cells measured by competitive activity-based protein profiling) EUB0002612a DDHD2. The format is functional, cell-based, HEK-293T. Set-up: mode of action Inhibitor, recommended concentration 1 uM.

For test [9], the target named is T1, Nuclear receptor ROR-gamma. The source holds these as a separate data set.
In test [10] the target is T4, Nuclear receptor ROR-alpha (Homo sapiens, UniProt P35398). The test can be described thus: Affinity On-target Cellular interaction: (Reporter gene assay (HEK293T cells)) EUB0001158a RORA. Set-up: mode of action Inverse Agonist, recommended concentration 1 uM. The format is functional, cell-based, HEK-293T.
Test [11] addresses T5, Nuclear receptor ROR-beta (Homo sapiens, UniProt Q92753).
T5 sequence (Q92753 whole entry): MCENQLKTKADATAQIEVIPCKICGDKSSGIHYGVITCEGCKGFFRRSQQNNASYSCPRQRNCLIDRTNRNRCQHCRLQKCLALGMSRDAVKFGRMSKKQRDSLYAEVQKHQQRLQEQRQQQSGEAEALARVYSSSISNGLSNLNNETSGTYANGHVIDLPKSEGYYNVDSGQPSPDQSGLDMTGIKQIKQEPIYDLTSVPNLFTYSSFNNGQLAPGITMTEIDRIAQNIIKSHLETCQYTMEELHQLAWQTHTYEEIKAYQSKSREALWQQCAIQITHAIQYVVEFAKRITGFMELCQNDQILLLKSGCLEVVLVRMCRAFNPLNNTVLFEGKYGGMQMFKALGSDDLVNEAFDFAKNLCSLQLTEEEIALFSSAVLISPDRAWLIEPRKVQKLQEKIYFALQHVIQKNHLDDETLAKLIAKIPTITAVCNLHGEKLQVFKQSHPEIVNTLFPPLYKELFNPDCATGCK
The test can be described thus: Affinity On-target Cellular interaction: (Reporter gene assay (HEK293T cells)) EUB0001158a RORB. The format is functional, cell-based, HEK-293T. Also noted: mode of action Inverse Agonist, recommended concentration 1 uM.

In test [12] the target is Sodium/glucose cotransporter 2 (Homo sapiens, UniProt P31639). The test can be described thus: Affinity On-target Cellular interaction: (AMG uptake assay in presence of 25% human plasma, 293.ETN cells) EUB0002515a SLC5A2. It is filed as functional, HEK293. Also noted: mode of action Inhibitor, recommended concentration 1 uM.
Test [13] addresses Thyroid hormone receptor beta (Homo sapiens, UniProt P10828). The experiment in a line: Affinity On-target Cellular interaction: (Reporter gene assay (HEK293T cells)) EUB0002355a THRB. Set-up: mode of action Antagonist, recommended concentration 3 uM. It is filed as functional, cell-based, HEK-293T.
Test [14] concerns the target T1, Nuclear receptor ROR-gamma. The test can be described thus: Affinity On-target Cellular interaction: (Reporter gene assay (HEK293T cells)) EUB0001157a RORC. Also noted: mode of action Inverse Agonist, recommended concentration 10 uM. It is filed as functional, cell-based, HEK-293T.
Test [15] has as its target T4, Nuclear receptor ROR-alpha. The test can be described thus: Affinity On-target Cellular interaction: (Reporter gene assay (HEK293T cells)) EUB0001157a RORA. It is filed as functional, cell-based, HEK-293T. Also noted: mode of action Inverse Agonist, recommended concentration 10 uM.
Test [16] deals with T5, Nuclear receptor ROR-beta. The experiment in a line: Affinity On-target Cellular interaction: (Reporter gene assay (HEK293T cells)) EUB0001157a RORB. The format is functional, cell-based, HEK-293T. Also noted: mode of action Inverse Agonist, recommended concentration 10 uM.
In test [17] the target is T5, Nuclear receptor ROR-beta. The test can be described thus: Affinity On-target Cellular interaction: (Reporter gene assay (HEK293T cells)) EUB0001161a RORB. Also noted: mode of action Antagonist, recommended concentration 10 uM. The format is functional, cell-based, HEK-293T.

For orientation: EC50 means the midpoint of the concentration-response curve. Low readings indicate higher potency in that assay, high ones lower potency in that assay. Broadly, the IC50 is the concentration that inhibits the measured activity by half.

T4 sequence (P35398 whole entry): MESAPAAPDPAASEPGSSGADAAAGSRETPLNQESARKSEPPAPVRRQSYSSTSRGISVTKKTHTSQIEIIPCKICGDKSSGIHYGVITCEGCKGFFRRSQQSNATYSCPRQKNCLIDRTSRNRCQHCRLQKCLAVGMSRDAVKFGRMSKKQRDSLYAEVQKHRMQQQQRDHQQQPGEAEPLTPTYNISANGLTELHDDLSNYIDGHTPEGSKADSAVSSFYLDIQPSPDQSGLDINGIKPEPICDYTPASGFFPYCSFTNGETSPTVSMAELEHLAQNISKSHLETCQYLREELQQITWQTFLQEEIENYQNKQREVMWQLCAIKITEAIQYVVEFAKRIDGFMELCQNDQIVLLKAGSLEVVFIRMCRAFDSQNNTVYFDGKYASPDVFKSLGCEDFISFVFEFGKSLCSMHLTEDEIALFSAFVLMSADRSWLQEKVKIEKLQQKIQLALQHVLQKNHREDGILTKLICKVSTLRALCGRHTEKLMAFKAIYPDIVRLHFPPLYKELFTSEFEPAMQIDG
Thyroid hormone receptor beta, sequence (P10828 whole entry): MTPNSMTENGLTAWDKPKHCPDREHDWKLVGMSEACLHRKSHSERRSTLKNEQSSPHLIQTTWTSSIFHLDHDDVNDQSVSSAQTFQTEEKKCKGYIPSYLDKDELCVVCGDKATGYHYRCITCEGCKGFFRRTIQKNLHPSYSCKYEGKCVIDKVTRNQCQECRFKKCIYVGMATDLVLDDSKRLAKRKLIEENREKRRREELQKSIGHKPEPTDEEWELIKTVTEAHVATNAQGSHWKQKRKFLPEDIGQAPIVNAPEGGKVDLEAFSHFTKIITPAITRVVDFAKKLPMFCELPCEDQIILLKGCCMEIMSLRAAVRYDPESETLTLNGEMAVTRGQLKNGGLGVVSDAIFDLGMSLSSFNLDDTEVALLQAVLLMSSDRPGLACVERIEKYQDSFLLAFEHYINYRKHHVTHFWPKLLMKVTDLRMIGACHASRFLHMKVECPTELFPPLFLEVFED
Nuclear receptor subfamily 1 group D member 1, sequence (P20393 whole entry): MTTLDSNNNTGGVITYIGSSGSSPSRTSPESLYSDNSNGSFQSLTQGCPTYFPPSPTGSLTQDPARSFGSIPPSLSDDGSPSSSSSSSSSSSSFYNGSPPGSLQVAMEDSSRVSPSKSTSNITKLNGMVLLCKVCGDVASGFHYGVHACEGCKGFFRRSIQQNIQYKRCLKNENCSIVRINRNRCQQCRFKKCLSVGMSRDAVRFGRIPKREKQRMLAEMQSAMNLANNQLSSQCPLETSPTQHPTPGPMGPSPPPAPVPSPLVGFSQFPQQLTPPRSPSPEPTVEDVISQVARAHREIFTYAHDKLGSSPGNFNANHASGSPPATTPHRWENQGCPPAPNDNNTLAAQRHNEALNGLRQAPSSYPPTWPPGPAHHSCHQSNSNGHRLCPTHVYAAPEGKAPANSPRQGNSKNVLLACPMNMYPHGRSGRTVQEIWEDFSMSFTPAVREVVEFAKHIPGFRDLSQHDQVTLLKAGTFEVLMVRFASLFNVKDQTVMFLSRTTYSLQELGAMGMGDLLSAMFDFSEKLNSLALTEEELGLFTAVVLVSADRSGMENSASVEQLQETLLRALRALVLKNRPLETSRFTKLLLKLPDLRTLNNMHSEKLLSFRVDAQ
Nuclear receptor subfamily 1 group I member 2, sequence (O75469 whole entry): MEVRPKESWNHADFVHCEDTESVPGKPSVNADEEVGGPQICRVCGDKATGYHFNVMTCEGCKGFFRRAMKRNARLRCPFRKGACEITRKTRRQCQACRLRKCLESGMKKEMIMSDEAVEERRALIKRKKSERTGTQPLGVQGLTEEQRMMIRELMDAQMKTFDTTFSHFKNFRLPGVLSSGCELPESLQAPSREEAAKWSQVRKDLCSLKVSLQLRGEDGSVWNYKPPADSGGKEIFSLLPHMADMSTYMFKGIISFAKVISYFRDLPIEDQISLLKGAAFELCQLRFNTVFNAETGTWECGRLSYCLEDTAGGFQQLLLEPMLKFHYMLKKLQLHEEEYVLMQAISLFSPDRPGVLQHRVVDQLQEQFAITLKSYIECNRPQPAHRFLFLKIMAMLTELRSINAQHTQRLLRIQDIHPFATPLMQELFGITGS
Sodium/glucose cotransporter 2, sequence (P31639 whole entry): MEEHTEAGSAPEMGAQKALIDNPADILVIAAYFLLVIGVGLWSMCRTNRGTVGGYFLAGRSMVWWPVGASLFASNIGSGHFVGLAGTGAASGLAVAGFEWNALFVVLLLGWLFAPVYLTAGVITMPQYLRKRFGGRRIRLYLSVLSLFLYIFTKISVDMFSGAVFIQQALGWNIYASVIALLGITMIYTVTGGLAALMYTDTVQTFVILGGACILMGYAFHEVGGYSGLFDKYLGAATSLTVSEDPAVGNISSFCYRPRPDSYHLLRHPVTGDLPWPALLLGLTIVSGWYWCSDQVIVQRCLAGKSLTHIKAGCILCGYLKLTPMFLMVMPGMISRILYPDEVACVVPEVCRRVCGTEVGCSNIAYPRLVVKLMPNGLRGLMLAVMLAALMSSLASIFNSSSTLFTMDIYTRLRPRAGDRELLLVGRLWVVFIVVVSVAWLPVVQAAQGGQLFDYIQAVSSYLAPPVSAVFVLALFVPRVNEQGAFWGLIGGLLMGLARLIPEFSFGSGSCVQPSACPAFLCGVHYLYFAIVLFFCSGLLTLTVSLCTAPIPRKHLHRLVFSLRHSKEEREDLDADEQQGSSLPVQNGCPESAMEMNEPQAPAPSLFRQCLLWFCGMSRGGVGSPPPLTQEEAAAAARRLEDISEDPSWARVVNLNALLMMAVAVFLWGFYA
Nuclear receptor subfamily 1 group D member 2, sequence (Q14995 whole entry): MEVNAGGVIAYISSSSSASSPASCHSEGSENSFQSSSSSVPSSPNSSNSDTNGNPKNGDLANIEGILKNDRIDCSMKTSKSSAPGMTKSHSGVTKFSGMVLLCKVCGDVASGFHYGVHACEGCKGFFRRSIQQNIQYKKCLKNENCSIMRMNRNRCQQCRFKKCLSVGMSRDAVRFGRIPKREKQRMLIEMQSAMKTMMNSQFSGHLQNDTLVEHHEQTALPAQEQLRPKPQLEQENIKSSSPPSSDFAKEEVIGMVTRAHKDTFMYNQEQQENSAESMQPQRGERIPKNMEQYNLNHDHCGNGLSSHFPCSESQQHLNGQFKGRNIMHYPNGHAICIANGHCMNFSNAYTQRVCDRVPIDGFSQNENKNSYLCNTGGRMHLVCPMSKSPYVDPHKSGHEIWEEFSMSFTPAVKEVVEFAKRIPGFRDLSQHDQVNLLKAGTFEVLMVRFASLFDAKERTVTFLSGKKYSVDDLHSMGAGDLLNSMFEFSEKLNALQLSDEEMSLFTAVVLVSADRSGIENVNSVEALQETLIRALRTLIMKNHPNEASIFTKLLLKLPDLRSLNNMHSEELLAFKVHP
Triacylglycerol hydrolase DDHD2, sequence (O94830 whole entry): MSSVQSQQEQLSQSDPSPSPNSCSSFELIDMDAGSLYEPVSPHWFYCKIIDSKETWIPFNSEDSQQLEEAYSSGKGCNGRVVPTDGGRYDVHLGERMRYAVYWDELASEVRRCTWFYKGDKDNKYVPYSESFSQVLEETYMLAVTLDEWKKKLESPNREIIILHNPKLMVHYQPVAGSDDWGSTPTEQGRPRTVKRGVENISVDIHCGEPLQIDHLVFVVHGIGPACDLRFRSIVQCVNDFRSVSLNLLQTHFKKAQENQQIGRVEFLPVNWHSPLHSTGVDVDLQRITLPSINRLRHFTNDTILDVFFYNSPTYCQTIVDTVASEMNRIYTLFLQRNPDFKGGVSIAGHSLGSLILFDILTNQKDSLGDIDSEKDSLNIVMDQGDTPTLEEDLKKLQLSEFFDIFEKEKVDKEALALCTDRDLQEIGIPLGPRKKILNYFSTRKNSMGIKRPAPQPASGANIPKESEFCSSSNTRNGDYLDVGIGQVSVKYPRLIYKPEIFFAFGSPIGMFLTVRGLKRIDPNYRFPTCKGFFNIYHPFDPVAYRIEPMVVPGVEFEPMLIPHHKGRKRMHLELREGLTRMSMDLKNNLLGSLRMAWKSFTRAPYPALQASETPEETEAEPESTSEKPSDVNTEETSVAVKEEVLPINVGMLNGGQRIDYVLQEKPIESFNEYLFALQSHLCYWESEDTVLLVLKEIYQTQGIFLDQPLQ

As for `O=C(Nc1ccc(C(O)(C(F)(F)F)C(F)(F)F)cc1)c1ccc(C(F)(F)F)cc1`, in [1], the EC50 turned out to be 2000 nM. On to `C[C@H](CCOc1cccc(CC(=O)O)c1)N(Cc1cccc(C(F)(F)F)c1Cl)CC(c1ccccc1)c1ccccc1`, for which the EC50 stood at 2900 nM in [2] and 3300 nM in test [3]. For the compound `CCCCCNC(=O)N1CCC(CN(Cc2ccc(Cl)cc2)Cc2ccc([N+](=O)[O-])s2)C1` (configuration not stated) [SR9011], the EC50 in [4] was determined as 2000 nM; in test [5], 3000 nM.

Consider `CC(=O)Oc1ccc2c(c1)[C@@]1(C)CCC[C@](C)(C(=O)OC(=O)[C@@]3(C)CCC[C@]4(C)c5cc(OC(C)=O)ccc5CC[C@@H]34)[C@@H]1CC2` [ACETYL PODOCARPIC ACID ANHYDRIDE], for which the EC50 in [6] is 1 nM.

Compound `O=c1[nH]c2ccccc2n1CCCN1CCN(C(c2ccccc2)c2ccccc2)CC1` [OXATOMIDE] had an EC50 in test [7] of 6000 nM. That is a single-digit micromolar value.

`O=C(N(CCc1ccccc1)C1CCCCC1)n1ncc(-c2ccc(OC(F)(F)F)cc2)n1` came in with a 50% inhibitory concentration (IC50) in test [8] of 3.6 nM. For the compound `CC(=O)Nc1nc(C)c(S(=O)(=O)Nc2ccc(C(O)(C(F)(F)F)C(F)(F)F)cc2)s1`, the IC50 in test [9] was 110 nM; in [10], 900 nM; in test [11], 1100 nM. In the case of `OC[C@H]1O[C@@H](c2ccc(Cl)c(Cc3ccc(OCCOC4CC4)cc3)c2)[C@H](O)[C@@H](O)[C@@H]1O` [BEXAGLIFLOZIN], the IC50 in [12] came to 2 nM.

For the compound `Cc1oc2ccccc2c1Cc1cc(I)c(OCC(=O)O)c(I)c1`, the IC50 in test [13] came to 2000 nM. In the case of `O=S(=O)(Nc1ccc(C(O)(C(F)(F)F)C(F)(F)F)cc1)c1cccs1`, the IC50 in test [14] amounted to 3200 nM; in test [15], 500 nM; in [16], 1500 nM.

Consider `COc1cc(O)c(C(CC(=O)N2C[C@H](C)C[C@H](C)C2)c2ccc3c(c2)OCO3)c(OC)c1` (some centres not stated), for which it took 1300 nM to reach half-maximal inhibition in test [17] (IC50).
